Results from patent US11299782B2, “Methods for predicting anti-cancer response” (Children's Medical Center Corporation, priority 2012, dated 2022).

System: operable TNBC
Test: Cisplatin-1 clinical trial: preoperative cisplatin monotherapy, pathologic response
Type: in vivo, human
Experimental: We performed a clinical trial, Cisplatin-1, in which 28 patients with operable TNBC were treated preoperatively with cisplatin monotherapy. […] A second trial, Cisplatin-2, accrued 51 patients with TNBC who received the same preoperative cisplatin regimen as Cisplatin-1, but in combination with the angiogenesis inhibitor bevacizumab (Ryan, P. D., et al. Neoadjuvant cisplatin and bevacizumab in triple negative breast cancer (TNBC): Safety and Efficacy. J Clin Oncol 2009; 27: 551). Response rate in Cisplatin-2 were similar to Cisplatin-1. […] In Cisplatin-2, 8 patients carried a germline BRCA1 or BRCA2 mutation, of which 4 patients achieved a pCR or near pCR to the cisplatin-bevacizumab regimen. In both trials, all patients had research sequencing to determine their germline BRCA1 and BRCA2 status. Thus in some aspects of all the embodiments of the invention, the BRCA1 and BRCA2 status can be determined either simultaneously with or before the allelic imbalance or telomeric allelic imbalance analysis. In some aspects, only patients without BRCA1 or BRCA2 mutations are subjected to the NAI (number of allelic imbalance) or NtAI (number of telomeric allelic imbalance) assays or analyses. Cisplatin was used as an example of platinum comprising cancer therapies. A total of 28 mainly sporadic TNBC patients were treated with cisplatin monotherapy in the neo-adjuvant setting (Silver et al. (2010) J. Clin. Oncol. 28, 1145-1153). Cisplatin response was measured using the semiquantitative Miller-Payne score by pathological assessment of surgical samples after therapy (Ogston et al. (2003) Breast 12, 320-327). […] Therapeutic response was measured using the semiquantitative Miller-Payne grading system, which estimates the percent reduction in invasive tumor volume and cellularity based on pathological assessment of surgical samples after therapy (Ogston, K. N., et al., A new histological grading system to assess response of breastcancers to primary chemotherapy: prognostic significance and survival. Breast 2003; 12: 320-327). […]

For `N.N.[Cl][Pt][Cl]` [cisplatin], the “patients with greater than 90% tumor reduction” value (10 of 28 patients, preoperative cisplatin monotherapy) was 36%, the “patients progressed on therapy” value (of 28 patients) was 4 and the “pathologic complete response (pCR), number of women” value (of 28 patients, 2 of them had BRCA1-associated cancers) was 6.
